Reference: patent US20250313653A1, “GUEST/HOST INCLUSION COMPLEXES CONTAINING S-NITROSOGLUTATHIONE AND METHODS OF USE THEREOF” (VIRGINIA COMMONWEALTH UNIVERSITY, priority 2022, published 2025)
Converted amounts (≈) assume the structure as drawn.

How the values were obtained:
[1] = GSNO thermal decomposition via UV-Vis absorption spectroscopy; type: physicochemical
Experimental: GSNO was synthesized by nitrosation of reduced L-glutathione in acidified nitrite as previously reported.^52 After collecting GSNO precipitates and washing them using cold water and acetone, GSNO powder was vacuum dried for 4 h and stored at −20° C. GSNO powders were dissolved in phosphate buffer (PB) containing the same mole of Na2HPO4 before the pH adjustment. For example, the formal concentration of Na2HPO4 is 0.1 M when the GSNO concentration is 0.1 M. One hundred μM EDTA was always added to each solution before the solution pH was finally adjusted to 7.4 via NaOH. EDTA is a chelating agent to mask Cu^2+, a S-nitrosothiol catalyst that may exist in solvents and chemicals as an impurity.^53 For solutions with reactive agents, BSA, ascorbic acid, or cysteine was added before the pH adjustment. To prepare GSNO-CD solutions, appropriate amounts of CD powders were dissolved into the GSNO solutions prior to the pH adjustment.
Aqueous GSNO solutions were contained in 1.5 mL disposable polystyrene cuvettes. The cuvette was caped and further sealed with parafilm. The concentrations of GSNO during storage at 37° C. or 25° C. in the dark were monitored by a UV-vis spectrophotometer (Go Direct® Fluorescence/UV-VIS Spectrophotometer) at a wavelength of 545 nm. A 4 W LED white light was used as the light source for the photodecomposition experiment at room temperature. The distance between the light source and the cuvettes was approximately 10 cm. All GSNO decomposition experiments were triplicated, and the GSNO concentration was expressed as mean±standard deviation.

[2] = Stability of GSNO in agar hydrogel (colour fading); type: physicochemical; conditions: 1% agar hydrogel, 0.1 M GSNO, 37° C.
Experimental: (§1) Two grams of agar were dissolved in 100 mL of 0.1 M phosphate buffer at pH 7.4 at 80° C. for 3 h with stirring. GSNO solutions at 0.2 M with or without 0.2 M αCD in 0.1 M phosphate buffer at pH 7.4 were prepared separately. Then, 0.5 mL GSNO solution and 0.5 mL dissolved agar were mixed and put into an ice bath to facilitate gelation.

[3] = tested on: E. coli; assay: Antibacterial effect of NO release solutions, 3-day exposure; type: cell-based; conditions: silicone surface
Experimental: Both biofilm and planktonic bacteria were quantified to evaluate the antibacterial activities of the proposed method. LB medium (25 mg/mL) was used to culture all bacterial strains overnight before performing the antibacterial tests. Segments of medical-grade silicone tubes were all autoclaved. Lock solutions were freshly prepared using the sterilized buffer and filtered through a 0.22 m PES syringe filter. The biofilms on the silicone surface were dip-rinsed 5 times in PBS and detached by 1-min vertexing, 1-min sonication (20% power of a 150 W probe sonifier, Branson Ultrasonics), and another 1-min vertexing for plate counting. When quantifying the planktonic bacteria, the suspension was homogenized by 1-min vertexing. […] After plate incubation at 37° C. overnight, colony-forming units (CFU) of bacteria were counted and converted to CFU/cm^2 for biofilm quantification and CFU/mL for planktonic bacteria quantification. […] In our case, the limit of detection (LOD) is 400 CFU/cm^2 for biofilm quantification and 200 CFU/mL for quantification of planktonic bacteria. […] The statistical significance between groups was determined using a student's t-test.
The 0.1 M αCD, 0.1 M GSNO, and 0.1 M GSNO+0.1 M αCD solutions were prepared in LB broth buffered with 0.1 M Na2HPO4 and adjusted to pH 7.4. […] Viable biofilm and planktonic cells were evaluated by plate counting. […]

[4] = tested on: fibroblast L929 cells; assay: Cytotoxicity test (MTS assay) of lock-solution-filled silicone tubes; type: cell-based, mouse; conditions: 24-h incubation of L929 cells with silicone tubes filled with the lock solution
Experimental: L929 murine fibroblast cells were suspended in complete media (DMEM with 1% penicillin/streptomycin and 10% FBS) before being seeded in a 24-well plate at a concentration of 5×10^5 cells per well. After 24 h of incubation, the attached cells in each well were incubated in fresh media containing a sterilized 1-cm silicone tube (HelixMark® 60-011-07) filled with a lock solution with buffer, GSNO, or GSNO-αCD and with both ends sealed. MTS assays were performed following the manufacturer's procedure after an additional 24-h incubation. Absorbance at 490 nm was measured by a Cytation 3 imaging plate reader (Biotek).

[5] = tested on: S. aureus; assay: Agar diffusion assay for the hydrogel containing GSNO; type: cell-based; conditions: agar hydrogel on inoculated LB-agar plate, 24-h incubation at 37° C.
Experimental: as §1
The overnight S. aureus culture was diluted to a density of 0.1 OD600 in PBS. Then, the diluted bacterial inoculum was uniformly spread on an LB-agar plate using a sterile cotton swab. The plate was marked as four separate portions. Forty μL of warm liquid agar with only buffer, GNSO, αCD, or GSNO-αCD (see section 2.5) was added onto a portion of the inoculated plate twice. The agar solution was gelated almost instantly due to the temperature decrease to form a small circular hydrogel area. The bacterial growth was visually examined after 24-h incubation at 37° C.

[6] = at low pH; cited from earlier work
[7] = administrated in humans, dogs, and rats at appropriate doses; cited from earlier work
[8] = 0.1 M GSNO in 0.1 M PB, pH 7.4, 37° C., with 0.15 M αCD and 0.1 M γCD
[9] = 0.1 M GSNO in 0.1 M PB, pH 7.4, 37° C., without CD
[10] = 0.1 M GSNO with 0.15 M αCD and 0.1 M γCD versus GSNO only

In the case of `N[C@@H](CCC(=O)N[C@@H](CSN=O)C(=O)NCC(=O)O)C(=O)O` [GSNO, S-nitrosoglutathione], the GSNO lifetime ([1]; 0.05 M GSNO and 0.15 M αCD in 0.05 M PB, pH 7.4, 37° C.) is reported as 17 days, the GSNO lifetime ([1]; 0.05 M GSNO in 0.05 M PB, pH 7.4, 37° C., without CDs) is reported as 7 days and the “GSNO decay in the first 24 h” value ([1]; 0.1 M GSNO in 0.1 M PB, pH 7.4, 37° C., with 0.1 M αCD) is reported as 39%. For the same compound, the GSNO lifetime [1, 8] was 15 days, the “first-day decay of GSNO” value [1, 8] was 22% and the GSNO lifetime ([1]; 0.1 M GSNO in 0.1 M PB, pH 7.4, 37° C., with an equal mole (0.1 M) of αCD) was 11 days. For the same compound, the “GSNO degraded within the first 24 h” value [1, 9] was 66%, the GSNO lifetime [1, 9] was 6 days and the “improvement of GSNO lifetime” value [1, 10] was 2.5 times. For the same compound, the “improvement of first-day decay” value [1, 10] was 3 times, the “lifetime of 0.1 M GSNO” value ([1]; in the presence of CDs at 37° C.) was “up to 15 days” and the half-life at 0.05 M ([1]; phosphate buffer, room temperature, 0.05 M GSNO in 0.05 M PB pH 7.4, with 0.15 M αCD) was ~20 days. For the same compound, the “half-life of GSNO relative to only GSNO” value ([1]; room temperature, with 0.15 M αCD) was 4 times, the “time the reddish color of GSNO lasts” value ([2]; with an equal mole of αCD) was “more than 6 days” and the “time in which the reddish color of GSNO fades” value ([2]; without αCD) was “less than 2 days”. The “reduction of E. coli biofilm” value [3] was 79%, the “cytotoxicity / cell viability (MTS)” value [4] was “no cytotoxicity” and the “S. aureus growth on the hydrogel” value [5] was “grows less bacteria”. The aqueous solubility [6] was 75 mM (≈ 25.2 mg/mL) and the “toxicities in in vivo studies” value [7] was “did not reveal any toxicities”.
